Laboratory results published in patent US5936082A, “Metallocorrinoids as biologically compatible carriers of pharmacological agents” (The University of Akron, priority 1997, dated 1999).

Assay: In vitro nitric oxide release and content by nitrogen oxides analyzer (Monitor Labs Model 8440)
Format: physicochemical
Method: The nitric oxide content and kinetic release profile, shown in FIG. 2, of nitrosylcobalamin was determined in vitro using a nitrogen oxides analyzer (Monitor Labs Model 8440). The amount of NO-"loading" was determined by examining the cumulative NO release, characterized at pH 4.9, 32° C., during a time span of 675.5 hours. The total NO released was 4,610 nmol NO, 38% loading based on the theoretical maximum of 11,890 nmol. The first twenty hours of NO release was characterized in great detail, with data readings taken every 15 minutes for the first eight hours and every half hour thereafter, resulting in the production of 260 nmol NO. […] At pH 10.0, NO release was undetected even though the sample size was increased to 20.6 mg.

Substance: nitrosylcobalamin
- NO produced at pH 5.0 (5 mg sample, pH 5.0, 37° C., 86 hour time span): 95.0 nmol
- NO produced at pH 6.0 (5 mg sample, pH 6.0, 37° C., 86 hour time span): 2.4 nmol
- NO produced at pH 7.4 (5 mg sample, pH 7.4, 37° C., 86 hour time span): 1.05 nmol
- kinetic order of the cumulative NO release profile (cumulative NO release, pH 4.9, 32° C., R^2 =0.9984): first order kinetics
- calculated half life of NO release (first order fit of cumulative NO release, pH 4.9, 32° C.): 210 h
- NO release in the first twenty hours (first twenty hours, pH 4.9, 32° C.): 260 nmol
- NO loading, based on the theoretical maximum of 11,890 nmol (from cumulative NO release at pH 4.9, 32° C., 675.5 hours): 38%
- total NO released (cumulative NO release) (pH 4.9, 32° C., time span of 675.5 hours): 4,610 nmol
- NO release at pH 10.0 (pH 10.0, sample size 20.6 mg): undetected
